melting point	Structure (SMILES)
237 °C	CC(=O)CN1CCC(CCN2CCN(c3cccc(OC(C)C)c3)CC2)CC1.Cl.Cl
275 °C	CC(=O)CN1CCC(CCN2CCN(c3ccc(Cl)c(Cl)c3Cl)CC2)CC1.Cl.Cl
206 °C	CC(=O)CN1CCC(CCN2CCN(c3ccc(Cl)cc3F)CC2)CC1.Cl.Cl
147 °C	COc1ccccc1N1CCN(CC[C@H]2CC[C@H](NC(=O)CCCC#N)CC2)CC1 [Example 382, 4-Cyano-N-(4-{2-[4-(2-methoxyphenyl)piperazin-1-yl]ethyl}cyclohexyl)butanamide]
220 °C	Cc1ccc(N2CCN(CC[C@H]3CC[C@H](NC(=O)C4=CCCC4)CC3)CC2)cc1F [Example 537, Cyclopent-1-enecarboxylic acid (4-{2-[4-(3-fluoro-4-methylphenyl)piperazin-1-yl]ethyl}cyclohexyl) amide]
271 °C	CCOc1ccccc1N1CCN(CCC2CCN(CC(C)=O)CC2)CC1.Cl.Cl
156 °C	Cc1ccc(F)c(N2CCN(CC[C@H]3CC[C@H](NC(=O)CCCC#N)CC3)CC2)c1 [Example 440, 4-Cyano-N-(4-{2-[4-(2-fluoro-5-methylphenyl)piperazin-1-yl]ethyl}cyclohexyl)butanamide]
243 °C	Cl.N#CCC(=O)N[C@H]1CC[C@H](CCN2CCN(c3ccccc3)CC2)CC1
182 °C	Cc1cc(C)cc(C2=CCN(CC[C@H]3CC[C@H](NC(=O)CC#N)CC3)CC2)c1
118 °C	COc1c(Cl)cccc1N1CCN(CC[C@H]2CC[C@H](NC(=O)CCCC#N)CC2)CC1 [Example 449, N-(4-{2-[4-(3-Chloro-2-methoxyphenyl)piperazin-1-yl]ethyl}cyclohexyl)-4-cyanobutanamide]
287 °C	CC(=O)CN1CCC(CCN2CCN(c3cc(C(F)(F)F)nc(C(C)(C)C)n3)CC2)CC1.Cl.Cl.Cl
119 °C	CC(C)C(O)c1cccc(N2CCN(CC[C@H]3CC[C@H](NC(=O)CC#N)CC3)CC2)c1 (some centres unmarked) [Example 575, 2-cyano-N-[4-(2-{4-[3-(1-hydroxy-2-methylpropyl)phenyl]piperazin-1-yl}ethyl)cyclohexyl]acetamide]
132 °C	CS(=O)(=O)c1cccc(N2CCN(CC[C@H]3CC[C@H](NC(=O)C(F)(F)F)CC3)CC2)c1 [Example 461, 2,2,2-Trifluoro-N-(4-{2-[4-(3-methanesulfonylphenyl)piperazin-1-yl]ethyl}cyclohexyl)acetamide]
66 °C	CON(C)C(=O)CN1CCC(CCN2CCN(c3cccc(C)c3C)CC2)CC1 [Example 772, 2-(4-{2-[4-(2,3-dimethylphenyl)piperazin-1-yl]ethyl}piperidin-1-yl)-N-methoxy-N-methylacetamide]
128 °C	CSCC(=O)N[C@H]1CC[C@H](CCN2CCN(c3cccc(C(F)(F)F)c3)CC2)CC1 [Example 80, 2-Methylsulfanyl-N-(4-{2-[4-(3-trifluoromethylphenyl)piperazin-1-yl]ethyl}cyclohexyl)acetamide]
92 °C	CC(=O)CN1CCC(CCN2CCN(c3ccc(C)cc3)CC2)CC1 [Example 310, 1-{4-[2-(4-p-Tolylpiperazin-1-yl)ethyl]piperidin-1-yl}propan-2-one]
103 °C	CC(=O)CN1CCC(CCN2CCN(c3ccc(C)c(Cl)c3)CC2)CC1 [Example 618, 1-(4-{2-[4-(3-Chloro-4-methylphenyl)piperazin-1-yl]ethyl}piperidin-1-yl)propan-2-one]
270 °C	CC(=O)CN1CCC(CCN2CCN(c3cccc(C(F)(F)F)c3F)CC2)CC1.Cl.Cl
154 °C	CCOCC(=O)N[C@H]1CC[C@H](CCN2CCN(c3ccc(Cl)cc3)CC2)CC1 [Example 515, N-(4-{2-[4-(4-Chloro-phenyl)piperazin-1-yl]ethyl}-cyclohexyl)-2-ethoxyacetamide]
206 °C	N#CCC(=O)N[C@H]1CC[C@H](CCN2CCc3cc(C#N)ccc3C2)CC1 [Example 559, 2-Cyano-N-{4-[2-(6-cyano-3,4-dihydro-1H-isoquinolin-2-yl)ethyl]cyclohexyl}acetamide]
203 to 204 °C	N#CCC(=O)N[C@H]1CC[C@H](CCN2CCN(c3cc(C(F)(F)F)ccc3Cl)CC2)CC1 [Example 189, N-(4-{2-[4-(2-Chloro-5-trifluoromethylphenyl)piperazin-1-yl]ethyl}cyclohexyl)-2-cyanoacetamide]
123 °C	COCC(=O)N[C@H]1CC[C@H](CCN2CCN(c3cccc(C(F)(F)F)c3)CC2)CC1 [Example 41, 2-Methoxy-N-(4-{2-[4-(3-trifluoromethylphenyl)piperazin-1-yl]ethyl}cyclohexyl)acetamide]
160 °C	CC(=O)c1cccc(N2CCN(CC[C@H]3CC[C@H](NC(=O)CC#N)CC3)CC2)c1 [Example 7, N-(4-{2-[4-(3-acetylphenyl)piperazin-1-yl]ethyl}cyclohexyl)-2-cyanoacetamide trans/cis 80/20]
217 °C	N#CCC(=O)N[C@H]1CC[C@H](CCN2CCN(c3ccc(Cl)c(Cl)c3Cl)CC2)CC1 [Example 729, 2-Cyano-N-(4-{2-[4-(2,3,4-trichlorophenyl)piperazin-1-yl]ethyl}cyclohexyl)acetamide]

melting point	Structure (SMILES)
320 to 325 °C	CC(=O)CN1CCC(CCN2CCN(c3cccc(Cl)c3C)CC2)CC1.Cl.Cl
220 °C	Cc1ccc(N2CCN(CC[C@H]3CC[C@H](NC(=O)CC#N)CC3)CC2)cc1Cl [Example 369, N-(4-{2-[4-(3-Chloro-4-methylphenyl)piperazin-1-yl]ethyl}cyclohexyl)-2-cyanoacetamide]
281 °C	CC(=O)CN1CCC(CCN2CCN(c3cc(F)ccc3C)CC2)CC1.Cl.Cl
126 °C	CC(=O)CN1CCC(CCN2CCN(c3cc(Cl)cc(Cl)c3)CC2)CC1 [Example 311, 1-(4-{2-[4-(3,5-Dichlorophenyl)-piperazin-1-yl]ethyl}piperidin-1-yl)propan-2-one]
152 °C	O=C(CCC(F)(F)F)N[C@H]1CC[C@H](CCN2CCN(c3cccc(C(F)(F)F)c3)CC2)CC1 [Example 265, 4,4,4-Trifluoro-N-(4-{2-[4-(3-trifluoromethylphenyl)piperazin-1-yl]ethyl}cyclohexyl)butanamide]
151 °C	CC(C)(C)c1nc(N2CCN(CC[C@H]3CC[C@H](NC(=O)CCC#N)CC3)CC2)cc(C(F)(F)F)n1 [Example 244]
202 °C	O=C(N[C@H]1CC[C@H](CCN2CC=C(c3ccccc3)CC2)CC1)C1=CCCC1
166 °C	Cc1cc(C)cc(C2=CCN(CC[C@H]3CC[C@H](NC(=O)CCCC#N)CC3)CC2)c1
163 °C	COc1ccc(C(C)(C)C)cc1N1CCN(CC[C@H]2CC[C@H](NC(=O)CC#N)CC2)CC1 [Example 197, N-(4-{2-[4-(5-tert-Butyl-2-methoxyphenyl)piperazin-1-yl]ethyl}cyclohexyl)-2-cyanoacetamide]
190 °C	O=C(N[C@H]1CC[C@H](CCN2CCN(c3cccc(C(F)(F)F)c3F)CC2)CC1)C1=CCCC1 [Example 458, Cyclopent-1-enecarboxylic acid (4-{2-[4-(2-fluoro-3-trifluoro-methylphenyl)piperazin-1-yl]ethyl}cyclohexyl) amide]
125 °C	CCOCC(=O)N[C@H]1CC[C@H](CCN2CCN(c3cccc(C(F)(F)F)c3F)CC2)CC1 [Example 478, 2-Ethoxy-N-(4-{2-[4-(2-fluoro-3-trifluoromethylphenyl)piperazin-1-yl]ethyl}cyclohexyl)acetamide]
210 °C	N#CCCC(=O)N[C@H]1CC[C@H](CCN2CCN(c3ccc(Cl)c(Cl)c3F)CC2)CC1 [Example 720, 3-Cyano-N-(4-{2-[4-(3,4-dichloro-2-fluorophenyl)piperazin-1-yl]ethyl}cyclohexyl)propanamide]
210 °C	N#CCC(=O)N[C@H]1CC[C@H](CCN2CCN(c3ccc4c(c3)CCC4)CC2)CC1 [Example 212, 2-Cyano-N-{4-[2-(4-indan-5-ylpiperazin-1-yl)ethyl]cyclohexyl}acetamide]
135 °C	COC(=O)N[C@H]1CC[C@H](CCN2CCN(c3cccc(C(F)(F)F)c3)CC2)CC1 [Example 39, (4-{2-[4-(3-Trifluoromethyl-phenyl)piperazin-1-yl]ethyl}cyclo-hexyl)carbamic acid methyl ester]
154 °C	N#CCCCC(=O)N[C@H]1CC[C@H](CCN2CCN(c3ccc(F)cc3)CC2)CC1 [Example 283, 4-Cyano-N-(4-{2-[4-(4-fluorophenyl)piperazin-1-yl]ethyl}cyclohexyl)butanamide]
205 °C	COc1ccc(N2CCN(CC[C@H]3CC[C@H](NC(=O)C4=CCCC4)CC3)CC2)cc1 [Example 571, Cyclopent-1-enecarboxylic acid (4-{2-[4-(4-methoxyphenyl)-piperazin-1-yl]ethyl}cyclohexyl) amide]
190 °C	N#CCC(=O)N[C@H]1CC[C@H](CCN2CCN(c3ccccc3C#N)CC2)CC1 [Example 376, 2-Cyano-N-(4-{2-[4-(2-cyanophenyl)piperazin-1-yl]ethyl}cyclohexyl)acetamide]
75 °C	CCOCC(=O)N[C@H]1CC[C@H](CCN2CC=C(c3cccc(C(F)(F)F)c3)CC2)CC1
215 °C	CC(=O)CN1CCC(CCN2CCN(c3cccc(C)c3C#N)CC2)CC1.Cl.Cl
184 °C	Cc1ccc(C)c(N2CCN(CC[C@H]3CC[C@H](NC(=O)CC#N)CC3)CC2)c1 [Example 152, 2-Cyano-N-(4-{2-[4-(2,5-dimethylphenyl)piperazin-1-yl]ethyl}cyclohexyl)acetamide]
168 °C	Cc1ccc(N2CCN(CC[C@H]3CC[C@H](NC(=O)CCCC#N)CC3)CC2)cc1Cl [Example 381, N-(4-{2-[4-(3-Chloro-4-methylphenyl)piperazin-1-yl]ethyl}cyclohexyl)-4-cyanobutanamide]
156 °C	O=C(CC(F)(F)F)N[C@H]1CC[C@H](CCN2CCN(c3cccc(C(F)(F)F)c3)CC2)CC1 [Example 63, 3,3,3-Trifluoro-N-(4-{2-[4-(3-trifluoromethylphenyl)piperazin-1-yl]ethyl}cyclohexyl)propanamide]
153 °C	N#CCCCC(=O)N[C@H]1CC[C@H](CCN2CC=C(c3cc(C(F)(F)F)ccc3F)CC2)CC1
